For the series the following is noted: Liquid, Closed cell (Static) method.

Numbers after ± are expanded uncertainties.

What is called vapor or sublimation pressure is the pressure of vapour in equilibrium with the condensed phase.

For the compound `CCOC(=O)OCC` [diethyl carbonate], the “vapor or sublimation pressure” value came to 20.74 ± 2.2 kPa (353.15 K) and 30.23 ± 3.1 kPa (363.15 K).

For `CCO` [ethanol], the “vapor or sublimation pressure” value is recorded as 108.14 ± 11 kPa (353.15 K) and 156.04 ± 16 kPa (363.15 K).

Take `O` [water]: the “vapor or sublimation pressure” value by setting is: (353.15 K) 47.33 ± 4.8 kPa; (363.15 K) 70.07 ± 7 kPa.

These data come from the NIST ThermoML archive (doi:10.1016/j.fluid.2012.11.026).
